This assay has as its system Saccharomyces cerevisiae ABC16-Green Monster. Put plainly: growth inhibition at single dose (up to 150 µM), below the 70% cut-off for dose-response; higher = more potent. The settings on record: 18 h; 30 °C; YPD. The gist of the method: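 Data are given as percent growth inhibition. Log-phase drug-sensitive S. cerevisiae ABC16-Green Monster cells (OD600 0.1–0.2, 200 µl per well in 96-well plates) were treated in biological duplicates with each library compound at a single 150 µM dose, with untreated cultures alongside, and OD600 was measured at 0 h and after 18 h at 30 °C. Compounds falling below 70% in both replicates were not taken to dose-response.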

Molecules are shown by their SMILES.

As for `CCCNC(=O)N1CCC2(CC1)CC(=O)c1cc(C)ccc1O2`, the “growth inhibition at single dose” value is below 70%.

As to `OC1CCC(Nc2nn3cc(-c4ccccc4)nc3s2)CC1` (stereo not drawn), the “growth inhibition at single dose” value is below 70%.

Turning to `Cc1cc(NCCN2CCCCC2)c2ccc3ccccc3c2n1`, the “growth inhibition at single dose” value was below 70%.

Turning to `Oc1ccc(Cl)cc1CNc1nc2ccccc2[nH]1`, the “growth inhibition at single dose” value was below 70%.

For the compound `Cn1ccnc1Sc1ncnc2sccc12`, the “growth inhibition at single dose” value was below 70%.

With `Nc1c(C(=O)N2CCOCC2)sc2nc3c(cc12)CCCCC3`, the “growth inhibition at single dose” value is below 70%.

As to `C/N=c1\scc(-c2ccc(OC(F)F)cc2)n1/N=C/c1ccccc1Br`, the “growth inhibition at single dose” value is below 70%.

Regarding `COc1cccc(N(C)S(=O)(=O)c2cccc3cc(C)cnc23)n1`, the “growth inhibition at single dose” value is below 70%.

For `COc1ccc(CCn2nc(C(=O)NC3CC3)c3c2CCN(C(=O)c2cc(C)n[nH]2)C3)cc1`, the “growth inhibition at single dose” value was below 70%.

For `COc1ccccc1CNC(=O)CCn1c(=O)[nH]c2ccccc2c1=O`, the “growth inhibition at single dose” value is below 70%.

Turning to `CC(=O)Nc1cccc(Oc2ccc(C(=O)Nc3ccc4ccccc4c3)cc2[N+](=O)[O-])c1`, the “growth inhibition at single dose” value is below 70%.

Consider `COc1ccc(S(=O)(=O)N2CCSc3cc(Cl)ccc32)cc1`, for which the “growth inhibition at single dose” value is below 70%.

Regarding `Cc1ccc(C(=O)COC(=O)Cc2n[nH]c(=O)c3ccccc23)s1`, the “growth inhibition at single dose” value is below 70%.

On to `CCC(c1ccccc1)c1nn2c(-c3cccs3)nnc2s1` (stereo not drawn), for which the “growth inhibition at single dose” value was below 70%.

For the compound `Cc1cc(C(=O)CSc2nc3ccccc3[nH]2)c(C)n1-c1ccc(F)cc1`, the “growth inhibition at single dose” value is below 70%.

Regarding `Cc1noc(C)c1C(=O)OCC(=O)c1cc(C)n(-c2ccccc2F)c1C`, the “growth inhibition at single dose” value was below 70%.

On to `O=C(NCc1ccccc1)/C(=C/c1ccc(OCc2ccccc2)cc1)c1nc2ccccc2[nH]1`, for which the “growth inhibition at single dose” value is below 70%.

As to `Cc1ccc(-c2cc3c(nn2)-c2ccccc2C3=O)cc1`, the “growth inhibition at single dose” value was below 70%.

For the compound `CNc1nc(SCCS(=O)(=O)c2ccccc2)nc2ccccc12`, the “growth inhibition at single dose” value was below 70%.

Take `CCOc1cc2c(cc1OCC)C(c1cc(Cl)ccc1O)NCC2` (stereo not drawn): the “growth inhibition at single dose” value was below 70%.

On to `COc1ccccc1N1C(=N)SC(=Cc2ccc(OCc3ccccc3F)cc2)C1=O`, for which the “growth inhibition at single dose” value is below 70%.

Regarding `Cc1ccc(Cn2c(N3CCC(C(=O)NCc4cccs4)CC3)nc3ccccc32)cc1`, the “growth inhibition at single dose” value is below 70%.

`CN(C)S(=O)(=O)c1ccc2oc(SCC(=O)Nc3cc(C(C)(C)C)no3)nc2c1`: the “growth inhibition at single dose” value is below 70%.

As to `Cc1c(CN2CCN(c3ccccn3)CC2)noc1-c1ccc(F)cc1`, the “growth inhibition at single dose” value was below 70%.

Regarding `COc1cccc(Nc2nc(NCCO)c3ccccc3n2)c1`, the “growth inhibition at single dose” value was below 70%.

As to `Nn1c(SCC(=O)c2c[nH]c3ccccc23)nnc1C(F)(F)F`, the “growth inhibition at single dose” value was below 70%.

As to `CCOc1ccc(N2C(N)=NC(N)=NC2(C)C)cc1`, the “growth inhibition at single dose” value is below 70%.

As for `CC(C)n1ncc2cc(C(=O)Nc3nc4c(s3)CCCC4)cnc21`, the “growth inhibition at single dose” value was below 70%.

As to `O=C(COc1ccc(Oc2ccccc2)cc1)NCc1cn2ccccc2n1`, the “growth inhibition at single dose” value was below 70%.

For `NC(=O)c1cc(Br)ccc1OCCOc1ccccc1`, the “growth inhibition at single dose” value was below 70%.

`Cc1nc(-c2ccccn2)nc(NCCc2ccc(S(C)(=O)=O)cc2)c1Cl`: the “growth inhibition at single dose” value is below 70%.

Regarding `CCCCOC(=O)c1ccc(Nc2cc(C)nc3ccc(OC)cc23)cc1`, the “growth inhibition at single dose” value is below 70%.

Regarding `CC(=O)Nc1ccc(NC(=O)c2cc(-c3cc(Cl)ccc3O)[nH]n2)cc1`, the “growth inhibition at single dose” value is below 70%.

For `COc1ccc([N+](=O)[O-])cc1C(=O)Nc1nc2c(s1)CCCCC2`, the “growth inhibition at single dose” value is below 70%.

`Cc1nn(-c2ccccc2)c(Oc2ccccc2)c1/C=C1\C(=O)Nc2ccccc21`: the “growth inhibition at single dose” value was below 70%.

Consider `CC1=C(CC(=O)c2cccc([N+](=O)[O-])c2)C(=O)c2ccccc2C1=O`, for which the “growth inhibition at single dose” value was below 70%.

In the case of `COc1cccc(Cn2nc(C(=O)NC3CC3)c3c2CCN(Cc2cc4c(cc2Cl)OCO4)C3)c1`, the “growth inhibition at single dose” value was below 70%.

`O=C(Nc1ccc2c(c1)OC1(CCCCC1)O2)c1ccc[nH]c1=S`: the “growth inhibition at single dose” value was below 70%.

In the case of `COc1ccc(/C=C2\N=C(SCC(=O)O)N(Cc3ccccc3)C2=O)cc1`, the “growth inhibition at single dose” value was below 70%.

As to `Cc1cc(C(=O)C(C)Sc2nnnn2C2CC2)c(C)n1-c1ccccc1` (stereo not drawn), the “growth inhibition at single dose” value is below 70%.

`CC(C)(C)c1ccc(Oc2ccc(N)cc2)cc1`: the “growth inhibition at single dose” value is below 70%.

On to `CCCCCCc1cc2cc(-c3nc4ccccc4[nH]3)c(=Nc3ccccc3C)oc2cc1O`, for which the “growth inhibition at single dose” value was below 70%.

Regarding `OC1CCN(c2nn3cc(-c4ccccc4)nc3s2)CC1`, the “growth inhibition at single dose” value was below 70%.

Take `c1ccc(Cn2c(N=Nc3c(Nc4ccccc4)ccc4ccccc34)nc3ccccc32)cc1`: the “growth inhibition at single dose” value is below 70%.

With `C=C(C)COc1ccc(-c2onc(C)c2-c2ccc(OC)c(OC)c2)c(O)c1`, the “growth inhibition at single dose” value is below 70%.

As to `COc1cc(CNCCc2ccc(Cl)cc2)cc(OC)c1O`, the “growth inhibition at single dose” value is below 70%.

With `Cn1c(=O)n(C)c2cc(CNCCNc3ccnc4cc(Cl)ccc34)ccc21`, the “growth inhibition at single dose” value was below 70%.

Take `O=c1nc(/C=C/c2ccc(Cl)cc2)oc2ccccc12`: the “growth inhibition at single dose” value is below 70%.

On to `Cc1ccccc1C(=O)N1N=C(Nc2ccccc2)SC1(C)C`, for which the “growth inhibition at single dose” value was below 70%.

As to `Nc1ncc(-c2cn[nH]c2)cc1-c1nc2cc(Cl)cnc2[nH]1`, the “growth inhibition at single dose” value was below 70%.

`CCOC(=O)c1c(C)n(-c2ccccc2)c2ccc(OC(=O)c3cc(OC)c(OC)c(OC)c3)cc12`: the “growth inhibition at single dose” value was below 70%.

Turning to `Cc1cc(C(=O)NCc2nnc3ccccn23)c(C)n1C1CCCCC1`, the “growth inhibition at single dose” value is below 70%.

For `CCOC(=O)c1cnc2c(CC)cccc2c1O`, the “growth inhibition at single dose” value was below 70%.

`COc1ccc(-c2nc(C(=O)N3CCc4ccccc43)cs2)cc1OC`: the “growth inhibition at single dose” value was below 70%.

For `Cc1ccnc(NC(=O)C2CC(=O)N(c3ccc(C)c(C)c3)C2)c1` (stereo not drawn), the “growth inhibition at single dose” value is below 70%.

Regarding `CCOc1ccccc1CNC(=O)C1c2ccccc2C(=O)N(CC(C)C)C1c1cccs1` (stereo not drawn), the “growth inhibition at single dose” value is below 70%.

With `Cc1ccc(C(=O)NC(C)C)n1C`, the “growth inhibition at single dose” value is below 70%.

For the compound `CCC(=O)Nc1ccccc1C(=O)Nc1ccccn1`, the “growth inhibition at single dose” value is below 70%.

In the case of `CCOC(=O)c1c[nH]c2c(F)cc(F)cc2c1=O`, the “growth inhibition at single dose” value was below 70%.

`Cc1cccnc1NC(=O)c1cccc(OCc2c(C)noc2C)c1`: the “growth inhibition at single dose” value is below 70%.

In the case of `COc1ccc(C(C)=O)cc1N1C(=O)C2C(C1=O)C1(c3ccccc3)C(=O)C2(c2ccccc2)C(c2ccc(C)cc2)=C1c1ccc(C)cc1` (stereo not drawn), the “growth inhibition at single dose” value is below 70%.

Take `COc1ccc2c(c1OC)C(=O)N1c3ccccc3N=C(c3ccc(C)cc3)CC21` (stereo not drawn): the “growth inhibition at single dose” value was below 70%.

With `Cc1ccc(Oc2c(C)[nH]c(-c3ccccc3)nc2=O)cc1`, the “growth inhibition at single dose” value was below 70%.

Consider `O=C(Nc1cc(Cl)cc(Cl)c1)c1cc(Br)ccc1O`, for which the “growth inhibition at single dose” value is below 70%.

Take `O=C(c1ccc(F)cc1)N(CCNc1ccccc1)c1ccccc1`: the “growth inhibition at single dose” value is below 70%.

Regarding `CO/C=C(/C(=O)OC)c1ccccc1Oc1cc(Oc2ccccc2C#N)ncn1`, the “growth inhibition at single dose” value is below 70%.

Take `COc1ccc(-c2cncc3ccc(C(=O)NCCCn4ccnc4)nc23)cc1`: the “growth inhibition at single dose” value is below 70%.

Take `CC1=Nc2ccc(Cl)cc2C(O)(c2ccc(C)cc2)N1CCN1CCCCC1` (stereo not drawn): the “growth inhibition at single dose” value is below 70%.

For `O=C(Nc1ccc(-c2nc3cc(NC(=O)c4ccc(Cl)cc4)ccc3[nH]2)cc1)c1ccc(Cl)cc1`, the “growth inhibition at single dose” value is below 70%.

As to `O=C(Nc1ccc(CNc2ncnc3cc(Cl)ccc23)cc1)C1CC1`, the “growth inhibition at single dose” value was below 70%.

For `O=C(c1c[nH]c2ccccc12)C(c1ccccc1)N1CCN(CC(=O)N2CCCC2)CC1` (stereo not drawn), the “growth inhibition at single dose” value is below 70%.

As to `Cc1cc(Nc2ccc(C(F)(F)F)cc2)n2ccnc2n1`, the “growth inhibition at single dose” value was below 70%.

As to `CNC(=O)c1ccc(CN(C2CC2)S(=O)(=O)c2cc(C)ccc2C)cc1`, the “growth inhibition at single dose” value is below 70%.

Take `Cc1cc(C)cc(COc2ccc3c(C)c(CCC(=O)O)c(=O)oc3c2C)c1`: the “growth inhibition at single dose” value was below 70%.

As for `O=C(NCc1cc(Cl)cc(Cl)c1)c1c(C(F)(F)F)nc2ccccn12`, the “growth inhibition at single dose” value is below 70%.

Regarding `CO/N=C(\C(=O)OC)c1ccccc1CO/N=C(\C)c1cccc(C(F)(F)F)c1`, the “growth inhibition at single dose” value is below 70%.

`CC(C)(C)c1nc(-c2ccc(N)cc2)no1`: the “growth inhibition at single dose” value is below 70%.

Turning to `Cc1cc(NC(=O)c2ccc(-c3ccccc3)cc2)no1`, the “growth inhibition at single dose” value was below 70%.

As to `COc1ccccc1OCCCCn1c(C2CC2)nc2ccccc21`, the “growth inhibition at single dose” value is below 70%.

Consider `Cc1cccc(-c2nc(Nc3ccncn3)c3sccc3n2)n1`, for which the “growth inhibition at single dose” value was below 70%.

As for `CCc1ccc(C(=O)Nc2cccc(NC(=O)c3ccccc3C)c2)cc1`, the “growth inhibition at single dose” value was below 70%.

`FC(F)(F)c1ccc(Nc2nnnc3ccccc23)cc1`: the “growth inhibition at single dose” value was below 70%.

In the case of `O=C(Nc1ccc(CN2CCOCC2)cc1)c1ccc(-c2cc(Cl)ccc2Cl)o1`, the “growth inhibition at single dose” value was below 70%.

For the origin of these results see the supplement of paper PMC8837787.
